Data from patent publication US10920230B2, “Methylotrophs for aquaculture and animal feed” (KnipBio, Inc., priority 2013, dated 2021).
≈ marks a conversion by molar mass, not a printed value.

Experiments:
[1] = tested on: wild-type B. fungorum LB400; assay: Natural chloramphenicol resistance seen during selection of transconjugants; assay type: cell-based, Burkholderia fungorum; settings: citrate medium
Protocol: A ΔflhA::kan mutant of B. fungorum LB400 was generated by introducing pCM363 by conjugation. […] One tetracycline-sensitive strain representing a ΔfIhA::kan mutant, CM363K.1, was chosen for further study. The plasmid pCM157 was used as described above to produce the ΔflhA strain CM363.1. Analytical PCR was performed with wild-type B. fungorum LB400, CM363K.1, and CM363.1 for confirmation (data not shown).

O=C(N[C@H](CO)[C@H](O)c1ccc([N+](=O)[O-])cc1)C(Cl)Cl [chloramphenicol]
naturally resistant below [1]: 10 to 20 µg/mL

C=O [formaldehyde]
MIC (ΔflhA strain CM363.1): 100 µM (≈ 3 µg/mL)
